Test results from patent US9393316B2, “Cancer targeting peptides for enhancing anti-cancer drug delivery and therapeutic efficiencies” (priority 2014, dated 2016).

Legend:
HCT116 cells [1] = experiment: ELISA screening of phage clones on HCT116 cells (cellular ELISA); type: binding, human; conditions: HCT116, cell line panel
Method: (§1) The selected phages were further identified by ELISA screening. 1×10^4 cells were seeded into each well of 96-well ELISA plates (Falcon, Calif., USA) overnight and were fixed with 2% paraformaldehyde or methanol/acetone (1:1) for 10 min at RT. The plates were washed twice with PBS and were blocked with 1% BSA in PBS (w/v) for 30 min at RT. Then individual phage clones were added and incubated for 1 hr at RT. Following washing three times with PBS, the plates were incubated with horseradish peroxidase (HRP)-conjugated mouse anti-M13 phage antibody (GE Healthcare) at 1:2000 dilution for 1 hr at RT. The plates were washed three times with PBS again, and were subsequently incubated with the peroxidase substrate o-phenylenediamine dihydrochloride (OPD; Sigma) plus H2O2. The reaction was terminated by 3 N HCl, and the absorbance was measured using microplate reader (Model 680, BioRad) at 490 nm.

COLO205 = experiment: Flow cytometry surface binding of phage clones; design: species or system human
Method: (§2) Cells were grown to 70-80% confluence and were harvested with 10 mM EDTA in PBS. Peripheral blood mononuclear cells were prepared by using Ficoll-Paque Plus density gradient separation. After washing and suspending the cells with FACS buffer (PBS containing 1% fetal bovine serum), the cells were incubated for 1 hr at 4° C. with 5×10^9, 1×10^9 cfu individual phage clones or control phage, respectively. After washing twice with FACS buffer, cells were incubated with mouse anti-M13 monoclonal antibody (GE Healthcare) at 1:2000 dilution for 1 hr followed by 30 min with phycoerythrin (PE)-conjugated goat anti-mouse secondary antibody (Jackson ImmunoResearch) at 1:250 dilution at 4° C. The emission fluorescence signals were measured using FACSCantoll (Becton Dickinson) and were analyzed by FlowJo software.

HCT116 cells [2] = experiment: Flow cytometry surface binding of phage clones; design: species or system human
Method: as §2

HT29 = experiment: Flow cytometry surface binding of phage clones; design: species or system human
Method: as §2

LS174T = experiment: Flow cytometry surface binding of phage clones; design: species or system human
Method: as §2

SW620 = experiment: Flow cytometry surface binding of phage clones; design: species or system human
Method: as §2

[3] = system: peripheral blood mononuclear cells (PBMC); experiment: Flow cytometry binding of phage clones to normal cells; conditions: human PBMC
Method: as §2

HCT116 xenografts [4] = experiment: In vivo tumor homing, phage titer in tumor and organs; design: species or system mice; conditions: 2×10^11 pfu i.v., PBS perfusion; vs brain, lungs, heart
Method: Non-obese diabetic-severe combined immunodeficiency (NOD/SCID) mice were injected subcutaneously (s.c.) into the dorsolateral flank with 5×10^6 HCT116 cells. When the xenograft tumor size reached 300±50 mm^3, the mice were injected intravascularly (i.v.) with 2×10^11 pfu of the targeting phage or control phage M13KO7. Seven min after injection, the mice were sacrificed and perfused through the heart with 50 mL of PBS to wash unbound phages. After perfusion, xenograft tumor and mouse organs were taken out, washed three times with cold PBS, and cut into pans, with some of them homogenized. The phages bound to each tissue sample were recovered by log-phase Escherichia coli ER2738 culture and were titered on LB/IPTG/X-Gal agar plates. In peptide competitive inhibition experiments, 2×10^9 pfu of phage was co-injected with 100 μg of corresponding peptide or an unrelated control peptide.
To investigate the targeting ability of the selected phage clones in vivo, mice bearing HCT116 xenografts (300 mm^3) were injected with 2×10^11 pfu of either the selected phages or control phage through the tail vein. Phages were circulated and then were perfused with PBS buffer to wash out non-specific binders in circulation. After perfusion, we recovered and determined the […] of phage in tumor masses and normal organs.

HCT116 xenografts [5] = experiment: Immunohistochemical localization of phages in xenograft tumor and organs; type: in vivo, mice; conditions: tumor vs brain, heart, lungs, colon
Method: The tissue samples from in vivo phage homing experiment were embedded in frozen blocks. To evaluate the phage distribution in each tissue by immunohistochemistry, the frozen specimens were cut to 8-μm-thick sections and were collected on coated slides. The slides were washed with cold PBS to remove OCT and were fixed with 4% paraformaldehyde for 10 min at RT. To block endogenous peroxidase activity, the slides were soaked with 3% hydrogen peroxide in methanol for 30 min at RT. The nonspecific antibody binding sites were blocked by immersing the section with 1% BSA in PBS for 30 min at RT. The tissue sections were incubated with mouse anti-M13 monoclonal antibody at 1:250 dilution for 1 hr, followed by adding Super Enhancer reagent (Super SENSITIVE™ Polymer HRP Detection System/DAB, BioGenex) for 20 min and Poly-HRP reagent (BioGenex) for 30 min. After washing, the sections were developed with DAB (3,3′-diaminobenzidine) Chromogen (BioGenex) supplemented with Stable DAB buffer. The reaction was stopped by adding PBS. For nuclei staining, the slides were immersed in hematoxylin for 5 min, and were then mounted with mounting solution to terminate the reaction. The images of sections were taken and analyzed using automated acquisition system (TissueGnostics).

1112SK = experiment: Cellular ELISA of phage clones; type: binding, human
Method: as §1, with “nm. To evaluate the binding activities of the three selected phage clones to various human cancer cell lines, cellular ELISA was performed to detect sixteen types of human cancer cell lines, including A498, HTB-10, B16-F10, SKOV3, PC-3, U2OS, 1112SK, […], SAS, H460, MIA Paca-2, HCT116, HUVAC, CL1-5, Mahlavu, and MDA-MB-231.” for “nm.”

A498 = experiment: Cellular ELISA of phage clones; type: binding, human
Method: as §1, with “nm. To evaluate the binding activities of the three selected phage clones to various human cancer cell lines, cellular ELISA was performed to detect sixteen types of human cancer cell lines, including A498, HTB-10, B16-F10, SKOV3, PC-3, U2OS, 1112SK, […], SAS, H460, MIA Paca-2, HCT116, HUVAC, CL1-5, Mahlavu, and MDA-MB-231.” for “nm.”

CL1-5 = experiment: Cellular ELISA of phage clones; type: binding, human
Method: as §1, with “nm. To evaluate the binding activities of the three selected phage clones to various human cancer cell lines, cellular ELISA was performed to detect sixteen types of human cancer cell lines, including A498, HTB-10, B16-F10, SKOV3, PC-3, U2OS, 1112SK, […], SAS, H460, MIA Paca-2, HCT116, HUVAC, CL1-5, Mahlavu, and MDA-MB-231.” for “nm.”

H184 = experiment: Cellular ELISA of phage clones; type: binding, human
Method: as §1, with “nm. To evaluate the binding activities of the three selected phage clones to various human cancer cell lines, cellular ELISA was performed to detect sixteen types of human cancer cell lines, including A498, HTB-10, B16-F10, SKOV3, PC-3, U2OS, 1112SK, […], SAS, H460, MIA Paca-2, HCT116, HUVAC, CL1-5, Mahlavu, and MDA-MB-231.” for “nm.”

H460 = experiment: Cellular ELISA of phage clones; type: binding, human
Method: as §1, with “nm. To evaluate the binding activities of the three selected phage clones to various human cancer cell lines, cellular ELISA was performed to detect sixteen types of human cancer cell lines, including A498, HTB-10, B16-F10, SKOV3, PC-3, U2OS, 1112SK, […], SAS, H460, MIA Paca-2, HCT116, HUVAC, CL1-5, Mahlavu, and MDA-MB-231.” for “nm.”

HTB-10 = experiment: Cellular ELISA of phage clones; type: binding, human
Method: as §1, with “nm. To evaluate the binding activities of the three selected phage clones to various human cancer cell lines, cellular ELISA was performed to detect sixteen types of human cancer cell lines, including A498, HTB-10, B16-F10, SKOV3, PC-3, U2OS, 1112SK, […], SAS, H460, MIA Paca-2, HCT116, HUVAC, CL1-5, Mahlavu, and MDA-MB-231.” for “nm.”

HUVAC = experiment: Cellular ELISA of phage clones; type: binding, human
Method: as §1, with “nm. To evaluate the binding activities of the three selected phage clones to various human cancer cell lines, cellular ELISA was performed to detect sixteen types of human cancer cell lines, including A498, HTB-10, B16-F10, SKOV3, PC-3, U2OS, 1112SK, […], SAS, H460, MIA Paca-2, HCT116, HUVAC, CL1-5, Mahlavu, and MDA-MB-231.” for “nm.”

MDA-MB-231 = experiment: Cellular ELISA of phage clones; type: binding, human
Method: as §1, with “nm. To evaluate the binding activities of the three selected phage clones to various human cancer cell lines, cellular ELISA was performed to detect sixteen types of human cancer cell lines, including A498, HTB-10, B16-F10, SKOV3, PC-3, U2OS, 1112SK, […], SAS, H460, MIA Paca-2, HCT116, HUVAC, CL1-5, Mahlavu, and MDA-MB-231.” for “nm.”

MIA Paca-2 = experiment: Cellular ELISA of phage clones; type: binding, human
Method: as §1, with “nm. To evaluate the binding activities of the three selected phage clones to various human cancer cell lines, cellular ELISA was performed to detect sixteen types of human cancer cell lines, including A498, HTB-10, B16-F10, SKOV3, PC-3, U2OS, 1112SK, […], SAS, H460, MIA Paca-2, HCT116, HUVAC, CL1-5, Mahlavu, and MDA-MB-231.” for “nm.”

Mahlavu = experiment: Cellular ELISA of phage clones; type: binding, human
Method: as §1, with “nm. To evaluate the binding activities of the three selected phage clones to various human cancer cell lines, cellular ELISA was performed to detect sixteen types of human cancer cell lines, including A498, HTB-10, B16-F10, SKOV3, PC-3, U2OS, 1112SK, […], SAS, H460, MIA Paca-2, HCT116, HUVAC, CL1-5, Mahlavu, and MDA-MB-231.” for “nm.”

PC-3 = experiment: Cellular ELISA of phage clones; type: binding, human
Method: as §1, with “nm. To evaluate the binding activities of the three selected phage clones to various human cancer cell lines, cellular ELISA was performed to detect sixteen types of human cancer cell lines, including A498, HTB-10, B16-F10, SKOV3, PC-3, U2OS, 1112SK, […], SAS, H460, MIA Paca-2, HCT116, HUVAC, CL1-5, Mahlavu, and MDA-MB-231.” for “nm.”

SAS = experiment: Cellular ELISA of phage clones; type: binding, human
Method: as §1, with “nm. To evaluate the binding activities of the three selected phage clones to various human cancer cell lines, cellular ELISA was performed to detect sixteen types of human cancer cell lines, including A498, HTB-10, B16-F10, SKOV3, PC-3, U2OS, 1112SK, […], SAS, H460, MIA Paca-2, HCT116, HUVAC, CL1-5, Mahlavu, and MDA-MB-231.” for “nm.”

SKOV3 = experiment: Cellular ELISA of phage clones; type: binding, human
Method: as §1, with “nm. To evaluate the binding activities of the three selected phage clones to various human cancer cell lines, cellular ELISA was performed to detect sixteen types of human cancer cell lines, including A498, HTB-10, B16-F10, SKOV3, PC-3, U2OS, 1112SK, […], SAS, H460, MIA Paca-2, HCT116, HUVAC, CL1-5, Mahlavu, and MDA-MB-231.” for “nm.”

U2OS = experiment: Cellular ELISA of phage clones; type: binding, human
Method: as §1, with “nm. To evaluate the binding activities of the three selected phage clones to various human cancer cell lines, cellular ELISA was performed to detect sixteen types of human cancer cell lines, including A498, HTB-10, B16-F10, SKOV3, PC-3, U2OS, 1112SK, […], SAS, H460, MIA Paca-2, HCT116, HUVAC, CL1-5, Mahlavu, and MDA-MB-231.” for “nm.”

B16-F10 = experiment: Cellular ELISA of phage clones; type: binding, mouse
Method: as §1, with “nm. To evaluate the binding activities of the three selected phage clones to various human cancer cell lines, cellular ELISA was performed to detect sixteen types of human cancer cell lines, including A498, HTB-10, B16-F10, SKOV3, PC-3, U2OS, 1112SK, […], SAS, H460, MIA Paca-2, HCT116, HUVAC, CL1-5, Mahlavu, and MDA-MB-231.” for “nm.”

binding activity by FACS (COLO205): weak affinity | binding activity by FACS (HT29): high binding affinity | binding activity by FACS (LS174T): moderate affinity | binding activity by FACS (SW620): high binding affinity | binding by cellular ELISA (1112SK): highly specific binding | binding by cellular ELISA (A498): highly specific binding | binding by cellular ELISA (CL1-5): moderate binding | binding by cellular ELISA (H184): highly specific binding | binding by cellular ELISA (H460): highly specific binding | binding by cellular ELISA (HTB-10): moderate binding | binding by cellular ELISA (HUVAC): highly specific binding | binding by cellular ELISA (MDA-MB-231): highly specific binding | binding by cellular ELISA (MIA Paca-2): highly specific binding | binding by cellular ELISA (Mahlavu): highly specific binding | binding by cellular ELISA (PC-3): highly specific binding | binding by cellular ELISA (SAS): highly specific binding | binding by cellular ELISA (SKOV3): highly specific binding | binding by cellular ELISA (U2OS): highly specific binding | binding by cellular ELISA (B16-F10): highly specific binding
Sequence: TSVSIVSTVLTP [HCT69]
binding by cellular ELISA (HCT116 cells [1]): highly specific binding | cell surface-binding activity by flow cytometry (HCT116 cells [2]): high binding affinity | binding activity to PBMC (normal cells) by FACS [3]: not to normal cells | phage accumulation in tumor mass vs normal organs (phage titer) (HCT116 xenografts [4]): significantly accumulated in the tumor mass | phage localization by immunostaining of tissue sections (HCT116 xenografts [5]): selectively localized in tumor tissues | phage localization by immunostaining of tissue sections (HCT116 xenografts [5]; listed as HCT-69): strong accumulated in the tumor
